Like-named read-outs stand apart in the source and are kept apart here.

Series [1] can be described thus: Stability of aqueous formulation on shelf storage / accelerated storage. Type of series: physicochemical.
The conditions of series [2]: cited from earlier work.
The nature of series [3]: Particulate matter in aqueous solution (USP requirements). The format is physicochemical. The note with it: aqueous solution of ganciclovir base at about or below about 3 mg/ml. An excerpt: As used herein, the term “particulate-matter-free” or its grammatical equivalents such as “particle free” refer to the state in which the composition of the present invention meets the USP requirements for particulate matter in parenteral solutions. See for example, USP XXXII, Chapter 788. One of skill in the art understands and knows how to assess whether a given composition meets USP particulate matter requirements.

The conditions of series [4]: cited from earlier work. The source holds these as a separate data set.

As to `Nc1nc2c(ncn2COC(CO)CO)c(=O)[nH]1` [ganciclovir base, 9-(1,3-dihydroxy-2-propoxymethyl)guanine], the “retained initial concentration of ganciclovir” value in series [1] (aqueous solution at about or below about 3 mg/ml, accelerated storage or stability testing conditions) is on record as “at least 95%”. For the same molecule, the “stability for extended shelf-storage” value in series [1] (aqueous solution of ganciclovir base at concentrations of about or below about 3 mg/ml) is given as “stable for extended shelf-storage”. The solubility in water result in series [2] is recorded as “limited solubility in water”. Further, the particulate matter entry in series [3] was “free or substantially free of particulate matter”.
`Nc1nc(O)c2ncn(COC(CO)CO)c2n1` [ganciclovir sodium]: the “stability in an aqueous formulation (prolonged shelf-storage)” value in series [4] is listed as “not sufficiently stable”. For the same molecule, the solubility in water entry in series [2] (listed as Ganciclovir sodium salt) is given as “very soluble in water”.

The record behind these values is US20250319189A1, “GANCICLOVIR COMPOSITIONS AND RELATED METHODS” (Exela Pharma Sciences, LLC, priority 2013, published 2025).
